Source: US20230107186A1, “COBICISTAT FOR PREVENTION AND/OR TREATMENT OF CORONAVIRUS INFECTIONS” (priority 2020, published 2023)

System: S-protein
Type: cell-based, SARS-CoV-2

CC(C)c1nc(CN(C)C(=O)N[C@@H](CCN2CCOCC2)C(=O)N[C@H](CC[C@H](Cc2ccccc2)NC(=O)OCc2cncs2)Cc2ccccc2)cs1 [Cobicistat, 1,3-thiazol-5-ylmethyl [(2R,5R)-5-{[(2S)-2-({[(2-isopropyl-1,3-thiazol-4-yl)methyl](methyl)carbamoyl}amino)-4-(morpholin-4-yl)butanoyl]amino}-1,6-diphenylhexan-2-yl]carbamate]
S-protein levels: decreased | concentration range with effect in western blot analysis: 5 to 10 µM
